Where two headings read alike, the source gives them in different places.
How the values were obtained:
Test in all cases: Post-emergent Test III, herbicidal activity in wheat and barley
Assay type in all cases: in vivo
[1] = test system: PAPRH: common poppy (Papaver rhoeas); settings: for pest or weed control at 35 g/ha / pest or weed control at 70 g/ha / pest or weed control at 140 g/ha: Papaver rhoeas, post-emergence, 504 h, read-out: Visual Growth Reduction (%) 21 Days After Application PAPRH; for pest or weed control at 35 g/ha: 35 g ai/ha; for pest or weed control at 70 g/ha: 70 g ai/ha; for GR50 PAPRH / GR80 PAPRH: probit analysis; for pest or weed control at 140 g/ha: 140 g ai/ha
Outline: (§1)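 GR20, GR50, GR80 and GR90 come from probit analysis of visual injury scores (0 = none, 100 = complete kill) taken 21 d after treatment. Foliar application was by track sprayer delivering 187 L/ha at five rates, from high down to 1/16×, onto greenhouse plants at the 2–3 leaf stage, with solvent-blank controls.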

[2] = test system: BROTE: downy brome (Bromus tectorum); settings: for pest or weed control at 35 g/ha / pest or weed control at 70 g/ha / pest or weed control at 140 g/ha: Bromus tectorum, post-emergence, 504 h, read-out: Visual Growth Reduction (%) 21 Days After Application BROTE; for pest or weed control at 35 g/ha: 35 g ai/ha; for pest or weed control at 70 g/ha: 70 g ai/ha; for pest or weed control at 140 g/ha: 140 g ai/ha; for GR50 BROTE / GR80 BROTE: probit analysis, 21 days after application; for GR50 BROTE: dose for growth reduction of 50 percent; for GR80 BROTE: dose for growth reduction of 80 percent
Outline: as §1

[3] = test system: ALOMY: black-grass (Alopecurus myosuroides); settings: for pest or weed control at 35 g/ha / pest or weed control at 70 g/ha / pest or weed control at 140 g/ha: Alopecurus myosuroides, post-emergence, 504 h, read-out: Visual Growth Reduction (%) 21 Days After Application ALOMY; for pest or weed control at 35 g/ha: 35 g ai/ha; for pest or weed control at 70 g/ha: 70 g ai/ha; for pest or weed control at 140 g/ha: 140 g ai/ha; for GR50 ALOMY / GR80 ALOMY: probit analysis, 21 days after application; for GR50 ALOMY: dose for growth reduction of 50 percent; for GR80 ALOMY: dose for growth reduction of 80 percent
Outline: as §1

[4] = test system: APESV: bentgrass (Apera spica-venti); settings: for pest or weed control at 35 g/ha / pest or weed control at 70 g/ha / pest or weed control at 140 g/ha: Apera spica-venti, post-emergence, 504 h, read-out: Visual Growth Reduction (%) 21 Days After Application APESV; for pest or weed control at 35 g/ha: 35 g ai/ha; for pest or weed control at 70 g/ha: 70 g ai/ha; for pest or weed control at 140 g/ha: 140 g ai/ha; for GR50 APESV / GR80 APESV: probit analysis
Outline: as §1

[5] = Table 8, dose for 50 percent growth reduction, 21 d
[6] = Table 8, dose for 80 percent growth reduction, 21 d
[7] = dose for growth reduction of 50 percent, 21 days after application
[8] = dose for growth reduction of 80 percent, 21 days after application
[9] = Table 9, dose for 50 percent growth reduction, 21 d
[10] = Table 9, dose for 80 percent growth reduction, 21 d

| Compound | pest or weed control at 35 g/ha [2] [%] | pest or weed control at 70 g/ha [2] [%] | pest or weed control at 140 g/ha [2] [%] | GR50 BROTE [2] [g ai/ha] | GR80 BROTE [2] [g ai/ha] | pest or weed control at 35 g/ha [3] [%] | pest or weed control at 70 g/ha [3] [%] | pest or weed control at 140 g/ha [3] [%] | GR50 ALOMY [3] [g ai/ha] | GR80 ALOMY [3] [g ai/ha] | pest or weed control at 35 g/ha [4] [%] | pest or weed control at 70 g/ha [4] [%] | pest or weed control at 140 g/ha [4] [%] | GR50 APESV [4, 7] [g ai/ha] | GR80 APESV [4, 8] [g ai/ha] | pest or weed control at 35 g/ha ([4]; Table 9, post-emergent, 21 d) [%] | pest or weed control at 70 g/ha ([4]; Table 9, post-emergent, 21 d) [%] | GR50 APESV [4, 9] [g ai/ha] | GR80 APESV [4, 10] [g ai/ha] | other results |
| --- | --- | --- | --- | --- | --- | --- | --- | --- | --- | --- | --- | --- | --- | --- | --- | --- | --- | --- | --- | --- |
| Nc1cc(-c2ccc(Br)c(F)c2)nc(C(=O)O)c1Cl [Compound 110, 4-Amino-6-(4-bromo-3-fluorophenyl)-3-chloropicolinic acid] |  |  |  |  |  |  |  |  |  |  |  |  |  |  |  |  |  |  |  | pest or weed control at 35 g/ha ([1]; Table 8, post-emergent, 21 d): 95 to 100%; pest or weed control at 70 g/ha ([1]; Table 8, post-emergent, 21 d): 95 to 100%; GR50 PAPRH [1, 5]: 1 g ai/ha; GR80 PAPRH [1, 6]: 1 g ai/ha |
| Nc1c(F)c(-c2ccc(Cl)c(F)c2)nc(C(=O)O)c1Cl [Compound 217] | 75 to 84 | 85 to 94 | 85 to 94 | 15 | 33 | 75 to 84 | 85 to 94 | 85 to 94 | 12 | 31 | 85 to 94 | 85 to 94 | 95 to 100 | 6 | 15 |  |  |  |  | pest or weed control at 35 g/ha [1]: 95 to 100%; pest or weed control at 70 g/ha [1]: 95 to 100%; pest or weed control at 140 g/ha [1]: 95 to 100%; GR50 PAPRH [1, 7]: 1 g ai/ha; GR80 PAPRH [1, 8]: 1 g ai/ha |
| Nc1cc(-c2ccc(Br)cc2)nc(C(=O)O)c1Cl [Compound 168] |  |  |  |  |  |  |  |  |  |  |  |  |  |  |  | 75 to 84 | 85 to 94 | 21 | 57 |  |
| C#Cc1ccc(-c2nc(N)c(OC)c(C(=O)O)n2)cc1 [Compound 28] |  |  |  |  |  |  |  |  |  |  |  |  |  |  |  | 0 to 29 | 0 to 29 | >140 | >140 |  |
| COC(=O)c1nc(-c2ccc(F)cc2)c(F)c(N)c1Cl [Compound 204] | 0 to 29 | 0 to 29 | 30 to 44 | >140 | >140 | 0 to 29 | 45 to 59 | 45 to 59 | 105 | >140 | 0 to 29 | 30 to 44 | 60 to 74 | 106 | >140 |  |  |  |  |  |
| COC(=O)c1nc(-c2ccc(F)c(F)c2F)c(F)c(N)c1Cl [Compound 186] | 0 to 29 | 0 to 29 | 0 to 29 | >140 | >140 | 0 to 29 | 0 to 29 | 0 to 29 | >140 | >140 | 0 to 29 | 0 to 29 | 0 to 29 | >140 | >140 |  |  |  |  |  |
| COc1c(N)nc(-c2ccc(Br)c(F)c2)nc1C(=O)O [Compound 113, 6-Amino-2-(4-bromo-3-fluorophenyl)-5-methoxypyrimidine-4-carboxylic acid] |  |  |  |  |  |  |  |  |  |  |  |  |  |  |  |  |  |  |  | pest or weed control at 35 g/ha ([1]; Table 8, post-emergent, 21 d): 95 to 100%; pest or weed control at 70 g/ha ([1]; Table 8, post-emergent, 21 d): 95 to 100%; GR50 PAPRH [1, 5]: 1 g ai/ha; GR80 PAPRH [1, 6]: 1 g ai/ha |
| Nc1cc(-c2ccc(Br)c(F)c2F)nc(C(=O)O)c1Cl [Compound 91] | 45 to 59 | 45 to 59 | 30 to 44 | 29 | >140 | 45 to 59 | 45 to 59 | 45 to 59 | 98 | >140 | 45 to 59 | 45 to 59 | 60 to 74 | 67 | >140 |  |  |  |  | pest or weed control at 35 g/ha [1]: 95 to 100%; pest or weed control at 70 g/ha [1]: 95 to 100%; pest or weed control at 140 g/ha [1]: 95 to 100%; GR50 PAPRH [1, 7]: 1 g ai/ha; GR80 PAPRH [1, 8]: 1 g ai/ha |
| COc1c(N)nc(-c2ccc(Br)cc2F)nc1C(=O)O [Compound 46] |  |  |  |  |  |  |  |  |  |  |  |  |  |  |  | 0 to 29 | 0 to 29 | >140 | >140 | pest or weed control at 140 g/ha ([4]; Table 9, post-emergent, 21 d): 45 to 59% |
| COC(=O)c1nc(-c2ccc(Br)cc2F)nc(N)c1OC [Compound 35] |  |  |  |  |  |  |  |  |  |  |  |  |  |  |  | 0 to 29 | 30 to 44 | 113 | >140 |  |
| C#Cc1ccc(-c2nc(N)c(OC)c(C(=O)O)n2)c(F)c1F [Compound 154] |  |  |  |  |  |  |  |  |  |  |  |  |  |  |  | 0 to 29 | 0 to 29 | >140 | >140 | pest or weed control at 140 g/ha ([4]; Table 9, post-emergent, 21 d): 0 to 29% |

From patent US9113629B2, “4-amino-6-(4-substituted-phenyl)-picolinates and 6-amino-2-(4-substituted-phenyl)-pyrimidine-4-carboxylates and their use as herbicides” (DOW AGROSCIENCES LLC, priority 2013, dated 2015)
